This passage reports IC50 results from BindingDB's records for doi:10.1021/jm050519b (Oxagen, 2005).

A short description of this test: Concentration required to inhibit PGD-2 induced change in the shape of human eosinophils expressing CRTH2.

pIC50: −log10 of the molar value.

By pIC50 is commonly meant the negative decadic logarithm of the IC50, by convention in mol/L. Read a low pIC50 as a large IC50.

As for `Cc1c(CC(=O)O)c2cc(F)ccc2n1S(=O)(=O)c1ccc(Cl)cc1` [[1-(4-Chloro-benzenesulfonyl)-5-fluoro-2-methyl-1H-indol-3-yl]-acetic acid], the pIC50 was 6.04.
With `Cc1c(CC(=O)O)c2cc(F)ccc2n1S(=O)(=O)c1ccc(S(C)(=O)=O)cc1` [[5-Fluoro-1-(4-methanesulfonyl-benzenesulfonyl)-2-methyl-1H-indol-3-yl]-acetic acid] the figure was 7.13.
